Reference: patent US20250100997A1, “PYRIDAZINYL AMINO DERIVATIVES AS ALK5 INHIBITORS” (CHIESI FARMACEUTICI S.P.A., priority 2022, published 2025)

Molecular target: T1, human ALK5 (recombinant TGF β1 N-term GST-tagged, 80-end) (Homo sapiens, UniProt P36897)
T1 construct: human ALK5 (recombinant TGF β1 N-term GST-tagged, 80-end); GST (N); purchased
T1 sequence (P36897 80-503 limits assumed): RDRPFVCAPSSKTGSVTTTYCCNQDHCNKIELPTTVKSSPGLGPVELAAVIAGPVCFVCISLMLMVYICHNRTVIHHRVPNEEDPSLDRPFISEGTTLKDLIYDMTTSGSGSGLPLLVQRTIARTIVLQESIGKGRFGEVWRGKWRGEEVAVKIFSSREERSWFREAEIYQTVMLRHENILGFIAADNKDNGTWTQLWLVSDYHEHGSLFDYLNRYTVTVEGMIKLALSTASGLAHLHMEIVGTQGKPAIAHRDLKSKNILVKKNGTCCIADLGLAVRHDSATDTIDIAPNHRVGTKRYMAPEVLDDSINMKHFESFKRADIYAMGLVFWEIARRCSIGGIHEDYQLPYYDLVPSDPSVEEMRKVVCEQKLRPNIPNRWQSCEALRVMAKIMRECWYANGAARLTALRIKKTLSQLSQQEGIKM
Experiment: ADP-GLO kinase assay, biochemical ALK5 assay
Conditions: pIC50 converted to pKi using the Cheng-Prusoff equation, ATP at Km, or high ATP (30-fold Km) for very potent compounds, 25° C.
Description: The enzymatic activity of compounds of the present invention was monitored measuring the formation of ADP using the ADP-GLO Kinases assay. Following the incubation of the purified enzyme, a substrate and ATP, the produced ADP was converted into ATP, which in turn was converted into light by Ultra-Glo Luciferase. The luminescent signal positively correlated with ADP amount and kinase activity. Briefly, the kinase reaction was performed by incubating 2.6 nM of the purified, commercially available human ALK5 (recombinant TGF β1 N-term GST-tagged, 80-end), a final concentration of TGFβ1 peptide 94.5 μM (Promega, T36-58) and ultra-pure ATP (Promega V915B). The ATP concentration was set at the Km value (concentration of substrate which permits the enzyme to achieve half maximal velocity (Vmax)) of ALK5 (0.5 μM). Compound and ALK5 kinase were mixed and incubated for 15 mins. Reactions were initiated by addition of ATP at a final concentration in the assay of […]. After an incubation of 120 min, the reaction was stopped, and ADP production detected with ADP-Glo kit according to manufacturer's indications. To overcome the assay wall limit for very potent compounds the assay protocol was changed by using a high ATP concentration (30-fold Km). Compounds and ALK5 kinase were mixed for 15 min and the reaction initiated by addition of TGFβ1 peptide and ATP at a final concentration in the assay of 15 μM. After an incubation of 60 min, the kinase reaction was stopped, and ADP production detected with ADP-Glo kit according to manufacturer's indications.
All reaction and incubation steps were performed at 25° C. and the assays were performed in 384-well format and validated using a selection of reference compounds tested in 11-point concentration-response curve.
Results were expressed as pIC50 (negative logarithm of IC50) and subsequently converted to pKi (negative logarithm of […]) using the Cheng-Prusoff equation. The higher the value of pKi, the greater the inhibition of ALK5 activity.

| SMILES | Ki [pM] |
| --- | --- |
| CN1CCN(CCC(=O)Nc2cc(Nc3cc(-c4cc(Cl)ccc4F)nnc3C3CCOC3)ccn2)CC1 (stereo not shown) [Example 21, N-(4-((6-(5-chloro-2-fluorophenyl)-3-(tetrahydrofuran-3-yl)pyridazin-4-yl)amino)pyridin-2-yl)-3-(4-methylpiperazin-1-yl)propanamide] | 126 to 794 |
| CN1CCN(CCC(=O)Nc2cc(Nc3cc(-c4cc(Cl)ccc4F)nnc3C3CCCS3)ccn2)CC1 (stereo not shown) [Example 22, N-(4-((6-(5-chloro-2-fluorophenyl)-3-(tetrahydrothiophen-2-yl)pyridazin-4-yl)amino)pyridin-2-yl)-3-(4-methylpiperazin-1-yl)propanamide] | 126 to 794 |
| CN1CCN(CCC(=O)Nc2cc(Nc3cc(-c4cc(Cl)ccc4F)nnc3C3CC(=O)N(C)C3)ccn2)CC1 (stereo not shown) [Example 23, N-(4-((6-(5-chloro-2-fluorophenyl)-3-(1-methyl-5-oxopyrrolidin-3-yl)pyridazin-4-yl)amino)pyridin-2-yl)-3-(4-methylpiperazin-1-yl)propanamide] | 1000 to 3160 |
| Fc1ccc(Cl)cc1-c1cc(Nc2ccc3ncsc3c2)c(C2=CCNCC2)nn1 [Example C1, N-[6-(5-chloro-2-fluorophenyl)-3-(1,2,3,6-tetrahydropyridin-4-yl)pyridazin-4-yl]-1,3-benzothiazol-6-amine, reference compound] | 60300 |
